In patent US10905646B2, “Thermoplastic polyurethane film for delivery of active agents to skin surfaces” (Lubrizol Advanced Materials, Inc., priority 2014, dated 2021):
Several values for one entry are separate records, joined by “and”; a condition that tells them apart may be missing. Equal entries are not always repeated.

Columns and labels:
[1] = Concentration of active in wet polymer K after soaking, by HPLC; assay type: physicochemical; settings: replicate samples
Description: The sample is placed in approximately 5 mL of soaking solution (TABLE 17) and suspended for 30 minutes in the solution. The sample is periodically checked to ensure it remains totally immersed in the solution. At the end of soaking time, the sample is removed and reweighed (final sample diameter, about 2.1 cm). The concentration of caffeine in the wet polymer sample is measured by HPLC and is shown in TABLE 18 (HPLC: Shimadzu Scientific Prominence System; Column: […].: 250×4.6 mm; Carrier Phase: A: Water, B: Methanol (65:35 v/v); Oven Temperature: Room Temperature (approx. 22° C.); Flow Rate: 1 mL/min.; UV detection: 254 nm). […] At the conclusion of the 30 min. soaking period the sample is removed from the dimethylmethoxy chromanyl palmitate solution and re-weighed (TABLE 20). The final sample diameter is about 2.0 cm. […] At the conclusion of the 30 min. soaking period the sample is removed from the arbutin solution and re-weighed. The final sample diameter is about 2.2 cm. […] (TABLE 23) and suspended for 90 minutes in the solution. […] At the conclusion of the 90 min. soaking period the sample is removed from the acetyl hexapeptide-37 solution and re-weighed. The final sample diameter is about 2.2 cm. […] (TABLE 25) and suspended for 90 minutes in the acetyl hexapeptide-8 solution. […] At the end of the 90 minute soaking time, the square is removed and weighed again (final piece diameter: 2.2 cm). The same study is performed with a lower concentration of peptide, as follows. […] At the end of the soaking time, the square is removed from the low concentration acetyl hexapeptide-8 solution and weighed again (final piece diameter: 2.2 cm).

[2] = Percutaneous absorption study on pig skin, Franz diffusion cell; assay type: in vitro ADME, domestic pigs (Sus domesticus); settings: Franz cell receptor fluid (PBS), HPLC
Description: A percutaneous absorption study is performed on pig skin test samples obtained from the back of domestic pigs (Sus domesticus) weighing about 30 kg. The pig skin is dermatomed to a thickness of about 500 microns and then test discs having a diameter of 2.5 cm are sectioned from the dermatomed skin. […] The loaded films are applied to the sample discs (in contact with the stratum corneum) for 30 minutes. Different layers of the film treated skin (stratum corneum, epidermis and dermis) are separated, assayed and analyzed for the quantity of caffeine and permeation into the respective layers of the skin. The quantitative analysis for caffeine and is conducted by HPLC utilizing the instrumentation identified above.
Additionally, the same solutions utilized to load the polymer films are topically applied across the entire surface of the stratum corneum of comparative pig skin disc samples prepared as above. […]
The lower chamber contained the receptor fluid (PBS solution, Sigma-Aldrich Co. LLC). The integrity of the skin is evaluated by measuring the transepidermal water loss (TEWL). […] The collected receptor fluid is analyzed by HPLC as described above.
The quantities of caffeine that permeated into each of the three different layers of the skin samples (stratum corneum, epidermis and dermis) are collected separately as follows. […]

Acetyl Hexapeptide-8
% Acetyl Hexapeptide-8 (w/w), vs. wet polymer ([1]; polymer K soaked 90 minutes in a 1/5000 dilution with water of the 0.05 % soaking solution): 0.0017 % (w/w) and 0.0019 % (w/w) | % Acetyl Hexapeptide-8 (w/w), vs. wet polymer ([1]; polymer K soaked 90 minutes in soaking solution with 0.05 % acetyl hexapeptide-8): 0.0425 % (w/w) and 0.0420 % (w/w) and 0.0418 % (w/w) and 0.0434 % (w/w)

CCCCCCCCCCCCCCCC(=O)Oc1cc2c(cc1OC)OC(C)(C)CC2 [dimethylmethoxy chromanyl palmitate]
% Dimethylmethoxy chromanyl palmitate (w/w), vs. wet polymer ([1]; film of Polymer K soaked 30 minutes in liposome soaking solution with 2 % dimethylmethoxy chromanyl palmitate): 1.074 % (w/w) and 0.964 % (w/w) and 1.009 % (w/w) and 0.994 % (w/w) and 0.888 % (w/w)

Cn1c(=O)c2c(ncn2C)n(C)c1=O [caffeine]
Caffeine in the collected receptor fluid [2]: No caffeine was present | % caffeine (w/w), vs. wet polymer ([1]; film of polymer K soaked 30 min in soaking solution with 2 % caffeine, pH 4): 2.60 % (w/w) and 2.57 % (w/w) and 2.59 % (w/w) and 2.64 % (w/w) and 2.63 % (w/w) (2×)

OC[C@H]1O[C@@H](Oc2ccc(O)cc2)[C@H](O)[C@@H](O)[C@@H]1O [Arbutin, (2R,3S,4S,5R,6S)-2Hydroxymethyl-6(4hydroxyphenoxy)oxane-3,4,5triol]
% Arbutin (w/w), vs. wet polymer ([1]; film of polymer K soaked 30 minutes in soaking solution with 4 % arbutin, pH 5.5): 1.42 % (w/w) and 1.61 % (w/w) (2×) and 1.45 % (w/w) and 1.78 % (w/w)
